Data from PMC8763382, “2-Sulfonylpyrimidines as Privileged Warheads for the Development of S. aureus Sortase A Inhibitors” (Frontiers in Molecular Biosciences, 2022).
Values joined by “and” are separate entries in the source; they are usually repeats but may differ in a detail not shown here. Equal entries are not always repeated.

Key:
[1] = target: T1, S. aureus SrtA (Staphylococcus aureus, UniProt Q2FV99); assay: fluorometric enzyme assay of SrtA transpeptidation (Abz-LPETG-Dap(Dnp)-OH substrate); type: biochemical; details: for S. I. (k 2nd/k chem): SrtA k 2nd over cysteine k chem; for k inact: maximum inactivation rate; for k inact / KI (inactivation) / k 2nd: Tris pH 7.50, n. i. = <20% inhibition at 100 µM; for KI (inactivation): read-out: KI, dissociation constant of the reversible enzyme-inhibitor complex; for k 2nd: second-order rate of inhibition; for inhibition at 100 µM: read-out: SrtA inhibition relative to the DMSO control
T1 construct: His tag (inferred from IMAC on a HisTrap column); made in house; host or cells: E. coli BL21 Gold (DE3)
Experimental: To evaluate the inhibition potency of the parent sulfonylpyrimidine 4, this compound was tested by means of a fluorometric enzyme assay with recombinantly expressed S. aureus SrtA ([Schmohl et al., 2017b]) and Abz-LPETG-Dap (Dnp)-OH as substrate. […] To verify the irreversible mode of inhibition, we determined the maximum inactivation rate k inact, the dissociation constant of the reversible enzyme-inhibitor complex KI, and the second-order rate of inhibition k 2nd. For compound 4, a k inact = 0.00065 s^−1 was found, which is very low compared to other covalent SrtA inhibitors ([Chan et al., 2017]; [Barthels et al., 2020]; [Jaudzems et al., 2020]).
Inhibition assays of S. aureus SrtA transpeptidation reactions were performed as described previously ([Barthels et al., 2020]). Briefly, the recombinantly expressed SrtA (final concentration: 1 µM) was incubated in assay buffer (50 mM Tris, 150 mM NaCl, 5 mM CaCl2, pH 7.50) with 25 µM of the FRET-pair substrate Abz-LPETG-Dap (Dnp)-OH (Genscript, Piscataway, New Jersey) and 0.5 mM tetraglycine (Sigma Aldrich, St. Louis, Missouri). Inhibitors were added from DMSO stocks. Reactions were initiated by addition of SrtA and monitored for 30 min at 30°C in an Infinite M200 Pro plate reader with λex 320 nm/λem 430 nm (Tecan, Männedorf, Switzerland). Three technical replicates were carried out for each inhibitor in black flat-bottom 96-well plates (Greiner bio-one, Kremsmünster, Austria). The enzyme kinetics of irreversible SrtA inactivation were analyzed as described previously ([Barthels et al., 2020]).

[2] = cysteine reactivity assay (competitive fluorescence assay with probe 8); type: physicochemical; details: phosphate buffer (1×PBS) pH 7.5
Description: In order to study the kinetics of sulfonylpyrimidines reacting with free cysteine in solution, a strategy for a competitive fluorescence-based assay was adapted from previous works ([Epps and Taylor, 2001]; [Sameshima et al., 2017]). […] The reaction of probe 8 with cysteine liberates 4-methylumbelliferone as a fluorometrically detectable product (Figure 7A), and thus, the fluorescence increase can be described by the second-order rate constant k probe (Equation 1).
Upon the addition of competitive and irreversible cysteine modifiers such as sulfonylpyrimidines, the fluorescence increase of the probe reaction was hyperbolically attenuated (Figure 7B). According to the conceptual deduction described previously ([Epps and Taylor, 2001]; [Sameshima et al., 2017]), the experimental fluorescence curves can be analyzed by nonlinear regression as first-order reaction progress curves (Equation 2). The parameter k obs describes the curvature corresponding to the sum of the competing kinetics (Equation 3). Under the assumptions that 1) the competitive reaction between sulfonylpyrimidines vs. probe with cysteine is started by simultaneous addition, and 2) sulfonylpyrimidines are added at a much higher concentration than cysteine (5 µM) and the probe (5 µM), the k obs values depend substantially on the k chem value. The compound-specific second-order inactivation parameter k chem can be determined by linear regression from the k obs values of the dilution series (Equation 4). d[FL]/dt=kprobe[Cys][probe] (1) FL=[Cys]total⋅kprobe [probe]/kprobe [probe] + kchem [sulfonylpyrimidine](1−e^−kobs⋅t) (2) kobs=kchem [sulfonylpyrimidine]+kprobe [probe] (3) kchem=kobs/[sulfonylpyrimidine] (4)
Kinetic characterization of the reaction between sulfonylpyrimidines and cysteine was performed in degassed phosphate buffer (1×PBS, pH 7.5) or individual cases in bicarbonate buffer (20 mM NaHCO3, 100 mM NaCl, pH 7.5). Three technical replicates were carried out for each sulfonylpyrimidine in black flat-bottom 96-well plates. For this purpose, 50 µL buffered solution (including 5% (v/v) DMSO) of the respective sulfonylpyrimidine derivative (final: 250–3 µM) and the cysteine reactive probe 8 (final: 5 µM) were premixed. Reactions were initiated by the addition of 50 µL cysteine (final: 5 µM), dissolved in the respective buffer, and monitored for 30 min at 30°C in an Infinite M200 Pro plate reader with λex 380 nm/λem 460 nm. To calculate k obs and k chem values, fluorescence curves were fitted using the same non-linear regression as for in vitro inhibition of SrtA ([Barthels et al., 2020]).

[3] = in-solution reaction with free cysteine (ESI-MS / LC/MS); type: physicochemical; details: for time to quantitative reaction with cysteine: compound 100 µM, cysteine 100 µM, phosphate buffered solution pH 7.5
Experimental: Thus, we determined the point of nucleophilic thiol attack by means of ESI mass spectrometry between the reaction of compound 7a and cysteine in phosphate buffered solution at pH 7.5.
Furthermore, the influence of different solvents on the reaction of sulfonylpyrimidines with thiols in solution was investigated.
To a solution of 100 µM cysteine in phosphate-buffered saline (1×, pH 7.5), compound 5a or 7a (100 μM, 5% DMSO) was added and incubated for 10 min at room temperature. The negative labeling control was performed by mock treatment with DMSO. Samples were analyzed by LC/MS using an Agilent 1100 series HPLC system with an Agilent Poroshell 120 EC-C18 column (150 × 2.10 mm 4 μm; mobile phase: ACN/H2O 45:55 + 0.1% formic acid; flow rate: 0.4 ml/min) and electron spray ionization with the Agilent 1100 series LC/MSD Trap in positive ionization mode.

[4] = target: T1, S. aureus SrtA; assay: MALDI-TOF-MS of SrtA treated with inhibitor; details: SrtA 10 µM, inhibitor 100 µM, 1 h room temperature
Experimental: By using MALDI-TOF mass spectrometry, we aimed to determine the mode of inhibitory action in an enzymatic context. For the native SrtA, we found a protein mass at m/z = 17,806.
An S. aureus SrtA stock solution was diluted in 100 μL assay buffer (50 mM Tris, 150 mM NaCl, 5 mM CaCl2, pH 7.50) to a final concentration of 10 µM. Compound 7a was dissolved in DMSO and added to SrtA at a final concentration of 100 μM. The protein samples were allowed to react for 1 h at room temperature and subsequently, these were desalted using Zeba^TM Spin desalting columns (7 kDa MWCO, 0.5 ml; Thermo Scientific) according to the manufacturer’s instructions. For MALDI sample preparation, the desalted solution was mixed 1:1 with a matrix combination of equal amounts α-cyano-4-hydroxycinnamic acid (20 mg/ml dissolved in 70% acetonitrile and 30% of formic acid in water at a concentration of 5%) and 2,5-dihydroxybenzoic acid (20 mg/ml dissolved in 70% acetonitrile and 30% of trifluoroacetic acid in water at a concentration of 0.1%). The resulting mixture was allowed to dry slowly on the MALDI target prior to introduction into the mass spectrometer. […] The acceleration voltage was set to 20 kV and the mass spectra were recorded in positive ion linear mode. […] Samples were measured at a laser power of 60% with random walk ionization across the sample spot.

[5] = target: T2, human cathepsin B (hCatB) (Homo sapiens, UniProt P07858); assay: protease selectivity panel, fluorometric assay cathepsin B; type: biochemical; details: 100 µM inhibitor; read-out: CatB inhibition relative to the DMSO control
T2 construct: purchased Calbiochem, Merck Millipore
Experimental: (§1) To investigate how these sulfonylpyrimidines affect the activity of other cysteine and serine proteases, a selectivity panel was constructed from a matrix of 6 diverse sulfonylpyrimidines and 6 different proteases. The compounds were assayed at a final compound concentration of 100 µM for the cysteine proteases human cathepsin B (hCatB), cathepsin L (hCatL), and T. brucei rhodesain (Rd). Furthermore, the serine proteases NS2B-NS3 from Zika virus (ZIKV), the homologous protease from Dengue virus (DENV), and the human protease urokinase plasminogen activator (uPA) were tested for their susceptibility.
(§2) Fluorometric assays of the ZIKV/DENV NS2B/NS3 protease were performed as described previously ([Maus et al., 2021]). The assay was carried out in triplicates at 25°C in assay buffer (50 mM Tris, pH 9.0, 20% glycerol (v/v), and 1 mM CHAPS). 100 µM Boc-Gly-Arg-Arg-AMC (Bachem, Bubendorf, Switzerland) was used as a substrate. Fluorometric assays for cathepsin B, cathepsin L, and rhodesain (Calbiochem, Merck Millipore, Burlington, Massachusetts) were performed as described previously ([Klein et al., 2020a]). Cbz-Phe-Arg-AMC (Bachem, Bubendorf, Switzerland) was used as substrate (100 μM for cathepsin B, 6.5 μM for cathepsin L, and 10 µM for rhodesain). Fluorometric assays for urokinase plasminogen activator were performed as described previously ([Angelini et al., 2012]). 240 µM Cbz-Gly-Arg-Arg-AMC (Bachem, Bubendorf, Switzerland) was used as a substrate.

[6] = target: T3, cathepsin L (hCatL) (Homo sapiens, UniProt P07711); assay: protease selectivity panel, fluorometric assay cathepsin L; type: biochemical; details: 100 µM inhibitor; read-out: CatL inhibition relative to the DMSO control
T3 construct: purchased Calbiochem, Merck Millipore
Experimental: as §1, §2

[7] = target: T4, T. brucei rhodesain (Rd) (Trypanosoma brucei rhodesiense, UniProt Q95PM0); assay: protease selectivity panel, fluorometric assay rhodesain; type: biochemical; details: 100 µM inhibitor, n. i. = no inhibition at 100 µM; for inhibition at 100 µM: read-out: Rd inhibition relative to the DMSO control
T4 construct: purchased Calbiochem, Merck Millipore
Experimental: as §1, §2

[8] = target: T5, NS2B-NS3 from Zika virus (ZIKV) (Zika virus, UniProt Q32ZE1); assay: protease selectivity panel, fluorometric assay ZIKV NS2B/NS3 protease; type: biochemical; details: 100 µM inhibitor; read-out: ZIKV inhibition relative to the DMSO control
T5 construct: The ZIKV NS2B/NS3 protease is a serine protease and contains two non-catalytic cysteine residues
Experimental: as §1, §2

[9] = target: DENV NS2B/NS3 protease (Dengue virus type 2, UniProt P29990); assay: protease selectivity panel, fluorometric assay DENV NS2B/NS3 protease; type: biochemical; details: 100 µM inhibitor, n. i. = no inhibition at 100 µM; for inhibition at 100 µM: read-out: DENV inhibition relative to the DMSO control
Experimental: as §1, §2

[10] = target: human protease urokinase plasminogen activator (uPA) (Homo sapiens, UniProt P00749); assay: protease selectivity panel, fluorometric assay urokinase plasminogen activator; type: biochemical; details: 100 µM inhibitor; n. i. = no inhibition at 100 µM; read-out: uPA inhibition relative to the DMSO control
Experimental: as §1, §2

[11] = target: T1, S. aureus SrtA; assay: fluorometric enzyme assay of SrtA transpeptidation (Abz-LPETG-Dap(Dnp)-OH substrate); type: biochemical
[12] = target: Cys184 (UniProt position 184, LTLITCDDYNE); assay: NMR; details: free enzyme (inferred); cited from earlier work
[13] = target: His120 (UniProt position 120, ISIAGHTFIDR); details: free enzyme (inferred); cited from earlier work

Chain of DENV NS2B/NS3 protease (P29990 1398-1437): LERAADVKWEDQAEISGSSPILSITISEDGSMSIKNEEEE
Chain of DENV NS2B/NS3 protease (P29990 1476-1653): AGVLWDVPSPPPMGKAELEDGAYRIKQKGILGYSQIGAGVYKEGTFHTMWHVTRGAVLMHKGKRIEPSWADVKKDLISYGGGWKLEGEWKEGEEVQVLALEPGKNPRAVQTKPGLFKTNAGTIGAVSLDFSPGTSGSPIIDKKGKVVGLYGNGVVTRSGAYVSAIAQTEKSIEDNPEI
T1 sequence (Q2FV99 60-206): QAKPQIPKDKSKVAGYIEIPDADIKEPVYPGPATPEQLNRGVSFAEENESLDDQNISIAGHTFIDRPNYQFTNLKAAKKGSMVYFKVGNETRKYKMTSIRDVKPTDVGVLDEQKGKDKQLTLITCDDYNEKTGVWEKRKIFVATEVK
T4 sequence (Q95PM0 entry or part of it): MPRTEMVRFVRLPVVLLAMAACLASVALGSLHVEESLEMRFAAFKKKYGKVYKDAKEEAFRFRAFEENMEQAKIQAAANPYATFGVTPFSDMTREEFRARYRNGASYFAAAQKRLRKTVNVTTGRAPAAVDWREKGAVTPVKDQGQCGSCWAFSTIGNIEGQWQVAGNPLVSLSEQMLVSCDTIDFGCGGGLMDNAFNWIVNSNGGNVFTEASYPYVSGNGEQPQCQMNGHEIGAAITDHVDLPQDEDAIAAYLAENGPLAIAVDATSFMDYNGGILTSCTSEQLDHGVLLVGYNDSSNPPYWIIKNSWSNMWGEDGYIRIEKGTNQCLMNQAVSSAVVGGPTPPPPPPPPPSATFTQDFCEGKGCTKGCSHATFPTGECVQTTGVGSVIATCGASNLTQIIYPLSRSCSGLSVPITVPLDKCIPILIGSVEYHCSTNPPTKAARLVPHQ
T3 sequence (P07711 114-333): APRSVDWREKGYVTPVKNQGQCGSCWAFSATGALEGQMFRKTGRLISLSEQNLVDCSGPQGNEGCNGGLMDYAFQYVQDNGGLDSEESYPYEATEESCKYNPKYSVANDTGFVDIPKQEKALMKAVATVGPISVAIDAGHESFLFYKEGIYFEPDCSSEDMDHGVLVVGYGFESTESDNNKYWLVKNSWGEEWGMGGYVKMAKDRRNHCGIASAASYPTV
T5 sequence (Q32ZE1 1499-1676): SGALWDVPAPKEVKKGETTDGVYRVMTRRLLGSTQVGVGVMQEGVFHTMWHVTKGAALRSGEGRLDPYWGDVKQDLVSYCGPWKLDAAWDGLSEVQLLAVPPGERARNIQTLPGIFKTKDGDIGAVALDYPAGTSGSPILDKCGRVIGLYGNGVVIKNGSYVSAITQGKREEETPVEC
T5 sequence (Q32ZE1 1421-1460): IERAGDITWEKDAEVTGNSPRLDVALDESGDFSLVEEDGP

CS(=O)(=O)c1ncc(Br)c(C(=O)Nc2cccc(C(=O)c3ccccc3)c2)n1 [Compound 7a]
S. I. (k 2nd/k chem) [1]: 268 | k inact [1]: 0.01493 ± 0.00132 s⁻¹ | KI (inactivation) [1]: 32 ± 5.07 µM | k 2nd [1]: 28,185 ± 2,117 M^−1min^−1 | Cysteine k chem [2]: 1.748 ± 0.375 M⁻¹ s⁻¹ | time to quantitative reaction with cysteine [3]: less than 10 min | covalent modification of SrtA (in words) [4]: quantitative conversion

CS(=O)(=O)c1ncc(Br)c(C(=O)Nc2cccc(Oc3ccccc3)c2)n1 [Compound 7b]
S. I. (k 2nd/k chem) [1]: 134 | k inact [1]: 0.01285 ± 0.00147 s⁻¹ | KI (inactivation) [1]: 55.9 ± 11.6 µM | inhibition at 100 µM [1]: 99.2% | k 2nd [1]: 13,998 ± 1,462 M^−1min^−1 | inhibition at 100 µM [5]: 12.5% | inhibition at 100 µM [6]: 28.5% | inhibition at 100 µM [7]: 4.7% | inhibition at 100 µM [8]: 18.3% | inhibition at 100 µM [9]: 5.2% | inhibition at 100 µM [10]: 11.2% | Cysteine k chem [2]: 1.735 ± 0.323 M⁻¹ s⁻¹ | melting point: 153 °C

CS(=O)(=O)c1ncc(Cl)c(C(=O)Nc2cccc(Oc3ccccc3)c2)n1 [Compound 5a]
S. I. (k 2nd/k chem) [1]: 159 | k inact [1]: 0.0077 s⁻¹ and 0.00774 ± 0.00007 s⁻¹ | KI (inactivation) [1]: 57.6 ± 3.55 µM | inhibition at 100 µM [1]: 99% | k 2nd [1]: 8,088 M^−1min^−1 and 8,088 ± 464 M^−1min^−1 | improvement of overall inhibition potency (k 2nd), factor ([1]; versus parent compound 4): 10 | inhibition at 100 µM [5]: 6.6% | inhibition at 100 µM [6]: 8.8% | inhibition at 100 µM [7]: 24.6% | inhibition at 100 µM [8]: 6.4% | DENV inhibition relative to the DMSO control [9]: n. i. | inhibition at 100 µM [10]: 23% | Cysteine k chem [2]: 0.847 ± 0.277 M⁻¹ s⁻¹ | time to quantitative reaction with cysteine [3]: < 10 min | reactivity with cysteine (in words) ([3]; water/DMSO mixtures, no buffer): No reactivity | melting point: 156 °C | k 2nd ([11]; pH 6.5, Tris or Bis-Tris buffer): 4,384 M^−1min^−1 | k 2nd ([11]; pH 7.0, Tris or Bis-Tris buffer): 8,436 M^−1min^−1 | k 2nd ([11]; zwitterionic HEPES buffer at pH 7.5): 7,956 M^−1min^−1

Sortase A (SrtA) (Staphylococcus aureus)
pKa [12]: 9.4 | pKa [13]: 6.3

CS(=O)(=O)c1ncc(Cl)c(C(=O)Nc2cccc(C(=O)c3ccccc3)c2)n1 [Compound 6a]
S. I. (k 2nd/k chem) [1]: 327 | k inact [1]: 0.00986 ± 0.00128 s⁻¹ | KI (inactivation) [1]: 29.6 ± 9.39 µM | inhibition at 100 µM [1]: 98.4% | k 2nd [1]: 20,785 ± 4,074 M^−1min^−1 | fold more potent based on the k 2nd value ([1]; versus virtual screening hit 5a): 2.5 fold | inhibition at 100 µM [5]: 5.6% | inhibition at 100 µM [6]: 18% | Rd inhibition relative to the DMSO control [7]: n. i. | inhibition at 100 µM [8]: 18.6% | inhibition at 100 µM [9]: 5.1% | inhibition at 100 µM [10]: 2.2% | Cysteine k chem [2]: 1.06 ± 0.14 M⁻¹ s⁻¹ | melting point: 175 °C
